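Growth conditions: 96-well plates. Treatment: test compound, 48 hours, 5 concentrations. Analysis: linear interpolation between bracketing concentrations; unreached endpoints set to highest concentration. TGI denotes the concentration required for complete inhibition of growth.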
Experiments:
Test in all cases: NCI anticancer screen, dose series, 48 h
786-0 renal = tested on: 786-0 renal
A498 renal = tested on: A498 renal
A549 NSCLC = tested on: A549 NSCLC
ACHN renal = tested on: ACHN renal
BT-549 breast = tested on: BT-549 breast
CAKI-1 renal = tested on: CAKI-1 renal
CCRF-CEM leukemia = tested on: CCRF-CEM leukemia
COLO 205 colon = tested on: COLO 205 colon
DU-145 prostate = tested on: DU-145 prostate
EKVX NSCLC = tested on: EKVX NSCLC
HCC-2998 colon = tested on: HCC-2998 colon
HCT-116 colon = tested on: HCT-116 colon
HCT-15 colon = tested on: HCT-15 colon
HL-60(TB) leukemia = tested on: HL-60(TB) leukemia
HOP-62 NSCLC = tested on: HOP-62 NSCLC
HOP-92 NSCLC = tested on: HOP-92 NSCLC
HS 578T breast = tested on: HS 578T breast
HT29 colon = tested on: HT29 colon
IGROV1 ovarian = tested on: IGROV1 ovarian
K-562 leukemia = tested on: K-562 leukemia
KM12 colon = tested on: KM12 colon
LOX IMVI melanoma = tested on: LOX IMVI melanoma
M14 melanoma = tested on: M14 melanoma
MALME-3M melanoma = tested on: MALME-3M melanoma
MCF7 breast = tested on: MCF7 breast
MDA-MB-231 breast = tested on: MDA-MB-231 breast
MDA-MB-435 = tested on: MDA-MB-435
MDA-N = tested on: MDA-N
MOLT-4 leukemia = tested on: MOLT-4 leukemia
NCI-H226 lung = tested on: NCI-H226 lung
NCI-H23 lung = tested on: NCI-H23 lung
NCI-H460 lung = tested on: NCI-H460 lung
NCI-H522 lung = tested on: NCI-H522 lung
OVCAR-3 ovarian = tested on: OVCAR-3 ovarian
OVCAR-4 ovarian = tested on: OVCAR-4 ovarian
OVCAR-5 ovarian = tested on: OVCAR-5 ovarian
OVCAR-8 ovarian = tested on: OVCAR-8 ovarian
PC-3 prostate = tested on: PC-3 prostate
RPMI-8226 leukemia = tested on: RPMI-8226 leukemia
RXF 393 renal = tested on: RXF 393 renal
SF-268 CNS = tested on: SF-268 CNS
SF-295 CNS = tested on: SF-295 CNS
SF-539 CNS = tested on: SF-539 CNS
SK-MEL-2 melanoma = tested on: SK-MEL-2 melanoma
SK-MEL-28 melanoma = tested on: SK-MEL-28 melanoma
SK-MEL-5 melanoma = tested on: SK-MEL-5 melanoma
SK-OV-3 ovarian = tested on: SK-OV-3 ovarian
SN12C renal = tested on: SN12C renal
SNB-19 CNS = tested on: SNB-19 CNS
SR leukemia = tested on: SR leukemia
SW-620 colon = tested on: SW-620 colon
T-47D breast = tested on: T-47D breast
TK-10 renal = tested on: TK-10 renal
U251 CNS = tested on: U251 CNS
UACC-257 melanoma = tested on: UACC-257 melanoma
UO-31 renal = tested on: UO-31 renal
SNB-75 CNS = tested on: SNB-75 CNS
UACC-62 melanoma = tested on: UACC-62 melanoma

Compound: C=CCNC(=O)N1CC(C)C(=O)Nc2ccccc21 (centres undefined)
- TGI (786-0 renal): > 100 µM
- TGI (A498 renal): > 100 µM
- TGI (A549 NSCLC): > 100 µM
- TGI (ACHN renal): > 100 µM
- TGI (BT-549 breast): > 100 µM
- TGI (CAKI-1 renal): > 100 µM
- TGI (CCRF-CEM leukemia): > 100 µM
- TGI (COLO 205 colon): > 100 µM
- TGI (DU-145 prostate): > 100 µM
- TGI (EKVX NSCLC): > 100 µM
- TGI (HCC-2998 colon): > 100 µM
- TGI (HCT-116 colon): > 100 µM
- TGI (HCT-15 colon): > 100 µM
- TGI (HL-60(TB) leukemia): > 100 µM
- TGI (HOP-62 NSCLC): > 100 µM
- TGI (HOP-92 NSCLC): > 100 µM
- TGI (HS 578T breast): > 100 µM
- TGI (HT29 colon): > 100 µM
- TGI (IGROV1 ovarian): > 100 µM
- TGI (K-562 leukemia): > 100 µM
- TGI (KM12 colon): > 100 µM
- TGI (LOX IMVI melanoma): > 100 µM
- TGI (M14 melanoma): > 100 µM
- TGI (MALME-3M melanoma): > 100 µM
- TGI (MCF7 breast): > 100 µM
- TGI (MDA-MB-231 breast): > 100 µM
- TGI (MDA-MB-435): > 100 µM
- TGI (MDA-N): > 100 µM
- TGI (MOLT-4 leukemia): > 100 µM
- TGI (NCI-H226 lung): > 100 µM
- TGI (NCI-H23 lung): > 100 µM
- TGI (NCI-H460 lung): > 100 µM
- TGI (NCI-H522 lung): > 100 µM
- TGI (OVCAR-3 ovarian): > 100 µM
- TGI (OVCAR-4 ovarian): > 100 µM
- TGI (OVCAR-5 ovarian): > 100 µM
- TGI (OVCAR-8 ovarian): > 100 µM
- TGI (PC-3 prostate): > 100 µM
- TGI (RPMI-8226 leukemia): > 100 µM
- TGI (RXF 393 renal): > 100 µM
- TGI (SF-268 CNS): > 100 µM
- TGI (SF-295 CNS): > 100 µM
- TGI (SF-539 CNS): > 100 µM
- TGI (SK-MEL-2 melanoma): > 100 µM
- TGI (SK-MEL-28 melanoma): > 100 µM
- TGI (SK-MEL-5 melanoma): > 100 µM
- TGI (SK-OV-3 ovarian): > 100 µM
- TGI (SN12C renal): > 100 µM
- TGI (SNB-19 CNS): > 100 µM
- TGI (SR leukemia): > 100 µM
- TGI (SW-620 colon): > 100 µM
- TGI (T-47D breast): > 100 µM
- TGI (TK-10 renal): > 100 µM
- TGI (U251 CNS): > 100 µM
- TGI (UACC-257 melanoma): > 100 µM
- TGI (UO-31 renal): > 100 µM

Compound: O=C1C=CC(=O)c2c(O)c(NCCCN3CCOCC3)c(Cl)c(O)c21
- TGI (786-0 renal): 5.23 µM
- TGI (A498 renal): > 10 µM
- TGI (A549 NSCLC): > 10 µM
- TGI (ACHN renal): > 10 µM
- TGI (BT-549 breast): 3.28 µM
- TGI (DU-145 prostate): 2.95 µM
- TGI (HCC-2998 colon): 3.71 µM
- TGI (HCT-116 colon): 2.93 µM
- TGI (HCT-15 colon): 3.12 µM
- TGI (HOP-62 NSCLC): 3.86 µM
- TGI (HS 578T breast): 3.14 µM
- TGI (HT29 colon): 7.34 µM
- TGI (IGROV1 ovarian): 3.58 µM
- TGI (K-562 leukemia): 8.68 µM
- TGI (KM12 colon): 3.8 µM
- TGI (LOX IMVI melanoma): 4.26 µM
- TGI (M14 melanoma): 4.18 µM
- TGI (MALME-3M melanoma): 3.56 µM
- TGI (MCF7 breast): 3.31 µM
- TGI (MDA-MB-231 breast): 7.96 µM
- TGI (MDA-MB-435): 3.62 µM
- TGI (MDA-N): 3.09 µM
- TGI (NCI-H226 lung): > 10 µM
- TGI (NCI-H23 lung): 3.43 µM
- TGI (NCI-H460 lung): > 10 µM
- TGI (OVCAR-3 ovarian): 2.99 µM
- TGI (OVCAR-5 ovarian): 3.1 µM
- TGI (OVCAR-8 ovarian): > 10 µM
- TGI (PC-3 prostate): 9.91 µM
- TGI (RPMI-8226 leukemia): 1.54 µM
- TGI (RXF 393 renal): 3.13 µM
- TGI (SF-268 CNS): 7.07 µM
- TGI (SF-295 CNS): 5.49 µM
- TGI (SF-539 CNS): 3.21 µM
- TGI (SK-MEL-2 melanoma): 0.526 µM
- TGI (SK-MEL-28 melanoma): 3.17 µM
- TGI (SK-MEL-5 melanoma): 2.4 µM
- TGI (SK-OV-3 ovarian): > 10 µM
- TGI (SN12C renal): 3.68 µM
- TGI (SNB-19 CNS): 3.25 µM
- TGI (SNB-75 CNS): 4.15 µM
- TGI (SR leukemia): 4.64 µM
- TGI (SW-620 colon): 4.22 µM
- TGI (T-47D breast): > 10 µM
- TGI (TK-10 renal): > 10 µM
- TGI (U251 CNS): 5.55 µM
- TGI (UACC-257 melanoma): 4.94 µM
- TGI (UACC-62 melanoma): 4.81 µM
- TGI (UO-31 renal): 3.64 µM

Compound: Cc1cccc(NC(=O)/C=C/c2ccccc2)c1C
- TGI (786-0 renal): > 100 µM
- TGI (A498 renal): > 100 µM
- TGI (A549 NSCLC): > 100 µM
- TGI (ACHN renal): > 100 µM
- TGI (BT-549 breast): > 100 µM
- TGI (CAKI-1 renal): > 100 µM
- TGI (CCRF-CEM leukemia): > 100 µM
- TGI (COLO 205 colon): > 100 µM
- TGI (DU-145 prostate): > 100 µM
- TGI (EKVX NSCLC): > 100 µM
- TGI (HCC-2998 colon): > 100 µM
- TGI (HCT-116 colon): > 100 µM
- TGI (HCT-15 colon): > 100 µM
- TGI (HL-60(TB) leukemia): > 100 µM
- TGI (HOP-62 NSCLC): > 100 µM
- TGI (HS 578T breast): > 100 µM
- TGI (HT29 colon): > 100 µM
- TGI (K-562 leukemia): > 100 µM
- TGI (KM12 colon): > 100 µM
- TGI (LOX IMVI melanoma): > 100 µM
- TGI (M14 melanoma): > 100 µM
- TGI (MALME-3M melanoma): > 100 µM
- TGI (MCF7 breast): > 100 µM
- TGI (MDA-MB-231 breast): > 100 µM
- TGI (MDA-MB-435): > 100 µM
- TGI (MDA-N): > 100 µM
- TGI (MOLT-4 leukemia): > 100 µM
- TGI (NCI-H226 lung): > 100 µM
- TGI (NCI-H23 lung): > 100 µM
- TGI (NCI-H460 lung): > 100 µM
- TGI (NCI-H522 lung): > 100 µM
- TGI (OVCAR-3 ovarian): > 100 µM
- TGI (OVCAR-4 ovarian): > 100 µM
- TGI (OVCAR-5 ovarian): > 100 µM
- TGI (OVCAR-8 ovarian): > 100 µM
- TGI (PC-3 prostate): > 100 µM
- TGI (RPMI-8226 leukemia): > 100 µM
- TGI (SF-268 CNS): > 100 µM
- TGI (SF-295 CNS): > 100 µM
- TGI (SF-539 CNS): > 100 µM
- TGI (SK-MEL-2 melanoma): > 100 µM
- TGI (SK-MEL-28 melanoma): > 100 µM
- TGI (SK-MEL-5 melanoma): > 100 µM
- TGI (SK-OV-3 ovarian): > 100 µM
- TGI (SN12C renal): > 100 µM
- TGI (SNB-19 CNS): > 100 µM
- TGI (SNB-75 CNS): > 100 µM
- TGI (SR leukemia): > 100 µM
- TGI (SW-620 colon): > 100 µM
- TGI (T-47D breast): > 100 µM
- TGI (TK-10 renal): > 100 µM
- TGI (U251 CNS): > 100 µM
- TGI (UACC-257 melanoma): > 100 µM
- TGI (UACC-62 melanoma): > 100 µM

From PubChem BioAssay (NCI)
